The source of these data is patent publication US10821115B2, “Compounds that inhibit Mcl-1 protein” (priority 2017, dated 2020).

Assay [1] has as its system human multiple myeloma cell line, OPM-2. As to the kind of experiment: Cell viability assay (OPM-2 10 FBS), CellTiter-Glo. The assay is classed as cell-based. A digest of the protocol:
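Steps: plate cells at 3000/well in 10% FBS growth medium, add serially diluted compound, incubate 16 h at 37 °C with 5% CO2, add detection reagent and read luminescence after 25 min. A 4-parameter logistic model gives IC50.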

Assay [2] addresses recombinant human Mcl-1 (residues 171-327) / Bim interaction (Homo sapiens (Human), UniProt Q07820). As to the kind of experiment: biochemical. The assay is classed as binding. To be noted: read-out: Mcl-1 HTRF IC50.
Setting [3] is: Homo sapiens, OPM-2, 16 h, read-out: OPM-2 10% FBS IC50 IP, OPM-2 cells, 10% FBS, 16 h, CellTiter-Glo.
Setting [4] is: read-out: OPM-2 10% FBS IC50 IP, OPM-2 cells, 10% FBS, 16 h, CellTiter-Glo.
[5] abbreviates: TR-FRET, Mcl-1(171-327) / biotin-Bim (51-76).
[6] abbreviates: read-out: OPM-2 10% FBS IC50 IP, OPM-2 cells, 10% FBS, 16 h incubation.
The mark [7] stands for this setting: 0.1 nM Mcl-1(171-327), 0.05 nM biotin-Bim (51-76).
[8] abbreviates: Homo sapiens, OPM-2, 16 h, read-out: OPM-2 10% FBS IC50 IP, OPM-2 cells, 10% FBS, 16 h incubation.

Where two headings read alike, the source gives them in different places.

recombinant human Mcl-1 (residues 171-327) / Bim interaction, sequence (Q07820 171-327): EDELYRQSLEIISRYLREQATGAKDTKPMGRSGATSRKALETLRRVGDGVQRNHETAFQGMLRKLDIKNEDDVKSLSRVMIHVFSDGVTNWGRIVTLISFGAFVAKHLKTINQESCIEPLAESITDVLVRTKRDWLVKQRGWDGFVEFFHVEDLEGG

As for `CC#C[C@]1(O)/C=C/C[C@H](C)[C@@H](C)S(=O)(=O)NC(=O)c2ccc3c(c2)N(C[C@@H]2CC[C@H]21)C[C@@]1(CCCc2cc(Cl)ccc21)CO3` [Example 100499, (1S,3′R,6′R,7′S,8′E,11′S,12′R)-6-chloro-7′-hydroxy-11′,12′-dimethyl-7′-(1-propyn-1-yl)-3,4-dihydro-2H,15′H-spiro[naphthalene-1,22′-[20]oxa[13]thia[1,14]diazatetracyclo [14.7.2.0~3,6~.0~19,24~]pentacosa[8,16,18,24]tetraen]-15′-one 13′,13′-dioxide], the 50% inhibitory concentration (IC50) in assay [1] (setting [3]) worked out at 1120 nM; in assay [2], 0.509 nM.
As for `CC[C@@H]1CC/C=C/[C@](O)(C(F)(F)F)[C@@H]2CC[C@H]2CN2C[C@@]3(CCCc4cc(Cl)ccc43)COc3ccc(cc32)C(=O)NS1(=O)=O` [Example 100044, (1S,3′R,6′R,7′R,8′E,12′R)-6-chloro-12′-ethyl-7′-hydroxy-7′-(trifluoromethyl)-3,4-dihydro-2H,15′H-spiro[naphthalene-1,22′-[20]oxa[13]thia[1,14]diazatetracyclo [14.7.2.0~3,6~.0~19,24~]pentacosa[8,16,18,24]tetraen]-15′-one 13′,13′-dioxide], the IC50 in assay [1] (setting [4]) turned out to be 7290 nM; in assay [2] (setting [5]), 31.1 nM.
Turning to `C[C@@H]1[C@@H](C)C/C=C/[C@]2(CN3CCN(C)C[C@@H]3CO2)[C@@H]2CC[C@H]2CN2C[C@@]3(CCCc4cc(Cl)ccc43)COc3ccc(cc32)C(=O)NS1(=O)=O` (single isomer, unassigned) [Example 133], the IC50 was determined as 136 nM in assay [1] (setting [6]) and 0.189 nM in assay [2] (setting [7]).
For `CO[C@]1(CN2CCCN(C(C)C)CC2)/C=C/C[C@H](C)[C@@H](C)S(=O)(=O)NC(=O)c2ccc3c(c2)N(C[C@@H]2CC[C@H]21)C[C@@]1(CCCc2cc(Cl)ccc21)CO3` [Example 327, (1S,3′R,6′R,7′R,8′E,11′S,12′R)-6-chloro-7′-methoxy-11′,12′-dimethyl-7′-((4-(1-methylethyl)-1,4-diazepan-1-yl)methyl)-3,4-dihydro-2H,15′H-spiro[naphthalene-1,22′-[20]oxa[13]thia[1,14]diazatetracyclo [14.7.2.0~3,6~.0~19,24~]pentacosa[8,16,18,24]tetraen]-15′-one 13′,13′-dioxide], the half-maximal inhibitory concentration (IC50) in assay [1] (setting [8]) amounted to 174 nM; in assay [2] (setting [7]), 0.214 nM.
As to `CO[C@@]1(C#CCCO)/C=C/C[C@H](C)[C@@H](C)S(=O)(=O)NC(=O)c2ccc3c(c2)N(C[C@@H]2CC[C@H]21)C[C@@]1(CCCc2cc(Cl)ccc21)CO3` [Example 100427, (1S,3′R,6′R,7′S,8′E,11′S,12′R)-6-chloro-7′-(4-hydroxy-1-butyn-1-yl)-7′-methoxy-11′,12′-dimethyl-3,4-dihydro-2H,15′H-spiro[naphthalene-1,22′-[20]oxa[13]thia[1,14]diazatetracyclo [14.7.2.0~3,6~.0~19,24~]pentacosa[8,16,18,24]tetraen]-15′-one 13′,13′-dioxide], the concentration for half-maximal inhibition (IC50) came to 342 nM in assay [1] (setting [3]) and 0.209 nM in assay [2] (setting [5]).
For `CO[C@@]1(CN2CCN(Cc3ncccn3)CC2)/C=C/C[C@H](C)[C@@H](C)S(=O)(=O)NC(=O)c2ccc3c(c2)N(C[C@@H]2CC[C@H]21)C[C@@]1(CCCc2cc(Cl)ccc21)CO3` [Example 338, (1S,3′R,6′R,7′S,8′E,11′S,12′R)-6-chloro-7′-methoxy-11′,12′-dimethyl-7′-((4-(2-pyrimidinylmethyl)-1-piperazinyl)methyl)-3,4-dihydro-2H,15′H-spiro[naphthalene-1,22′-[20]oxa[13]thia[1,14]diazatetracyclo [14.7.2.0~3,6~.0~19,24~]pentacosa[8,16,18,24]tetraen]-15′-one 13′,13′-dioxide], the figures for the IC50 in assay [1] (setting [8]) and in assay [2] (setting [7]) were 57 nM and 0.1 nM, respectively.
As for “(1 S,3′R,6′R,7′S,8′E, 11′S,12′R)-6-chloro-11′,12′-dimethyl-7′-(2-methylpropoxy)-7′-((4-(3-oxetanyl)-1-piperazinyl)methyl)-3,4-dihydro-2H,15′H-spiro[naphthalene-1,22′-[20]oxa[13]thia[1,14]diazatetracyclo[14.7.2.0-3,6˜.0˜19,24˜]pentacosa[8,16,18,24]tetraen]-15′-one 13′,13′-dioxide [Example 348]”, the half-inhibitory concentration (IC50) in assay [1] (setting [6]) stood at 5360 nM; in assay [2] (setting [7]), 2.62 nM.
Consider `COCCN1[C@H](C)CN(C[C@]2(OC)/C=C/C[C@H](C)[C@@H](C)S(=O)(=O)NC(=O)c3ccc4c(c3)N(C[C@@H]3CC[C@H]32)C[C@@]2(CCCc3cc(Cl)ccc32)CO4)C[C@@H]1C` [Example 324, (1S,3′R,6′R,7′S,8′E,11′S,12′R)-6-chloro-7′-methoxy-7′-(((3R,5S)-4-(2-methoxyethyl)-3,5-dimethyl-1-piperazinyl)methyl)-11′,12′-dimethyl-3,4-dihydro-2H,15′H-spiro[naphthalene-1,22′-[20]oxa[13]thia[1,14]diazatetracyclo [14.7.2.0~3,6~.0~19,24~]pentacosa[8,16,18,24]tetraen]-15′-one 13′,13′-dioxide], for which the half-maximal inhibitory concentration (IC50) in assay [1] (setting [8]) came out at 57 nM; in assay [2] (setting [7]) it was 0.136 nM.
In the case of `C[C@@H]1[C@@H](C)CCC[C@](O)(CC(=S)N(C)C)[C@@H]2CC[C@H]2CN2C[C@@]3(CCCc4cc(Cl)ccc43)COc3ccc(cc32)C(=O)NS1(=O)=O` (single isomer, unassigned) [Example 100172], the values for the IC50 in assay [1] (setting [4]) and in assay [2] (setting [5]) were 1570 nM and 1.29 nM, respectively.
`C[C@@H]1[C@@H](C)C/C=C/[C@](O)(c2ccccn2)[C@@H]2CC[C@H]2CN2C[C@@]3(CCCc4cc(Cl)ccc43)COc3ccc(cc32)C(=O)NS1(=O)=O` [Example 100180, (1S,3′R,6′R,7′R,8′E,11′S,12′R)-6-chloro-7′-hydroxy-11′,12′-dimethyl-7′-(2-pyridinyl)-3,4-dihydro-2H,15′H-spiro[naphthalene-1,22′-[20]oxa[13]thia[1,14]diazatetracyclo [14.7.2.0~3,6~.0~19,24~]pentacosa[8,16,18,24]tetraen]-15′-one 13′,13′-dioxide]: the IC50 in assay [1] (setting [3]) came to 4420 nM; in assay [2] (setting [5]) it was 4.92 nM.
In the case of `COC[C@@H]1[C@@H](C)C/C=C/[C@](CN2CCN(C(C)(C)C)CC2)(OC)[C@@H]2CC[C@H]2CN2C[C@@]3(CCCc4cc(Cl)ccc43)COc3ccc(cc32)C(=O)NS1(=O)=O` [Example 174, (1S,3′R,6′R,7′S,8′E,11′S,12′S)-7′-((4-tert-butyl-1-piperazinyl)methyl)-6-chloro-7′-methoxy-12′-(methoxymethyl)-11′-methyl-3,4-dihydro-2H,15′H-spiro[naphthalene-1,22′-[20]oxa[13]thia[1,14]diazatetracyclo [14.7.2.0~3,6~.0~19,24~]pentacosa[8,16,18,24]tetraen]-15′-one 13′,13′-dioxide], the concentration for half-maximal inhibition (IC50) in assay [1] (setting [8]) came out at 639 nM; in assay [2] (setting [7]) it was 0.322 nM.
`CO[C@@]1(CN2CCN(C(C)=O)CC2)/C=C/C[C@H](C)[C@@H](C)S(=O)(=O)NC(=O)c2ccc3c(c2)N(C[C@@H]2CC[C@H]21)C[C@@]1(CCCc2cc(Cl)ccc21)CO3` [Example 249, (1S,3′R,6′R,7′S,8′E,11′S,12′R)-7′-((4-acetyl-1-piperazinyl)methyl)-6-chloro-7′-methoxy-11′,12′-dimethyl-3,4-dihydro-2H,15′H-spiro[naphthalene-1,22′-[20]oxa[13]thia[1,14]diazatetracyclo [14.7.2.0~3,6~.0~19,24~]pentacosa[8,16,18,24]tetraen]-15′-one 13′,13′-dioxide]: the IC50 in assay [1] (setting [8]) came to 114 nM; in assay [2] (setting [7]), 0.063 nM.
Turning to `C[C@@H]1[C@@H](C)CCC[C@@](O)(CC(=O)N2CCOC2=O)[C@@H]2CC[C@H]2CN2C[C@@]3(CCCc4cc(Cl)ccc43)COc3ccc(cc32)C(=O)NS1(=O)=O` [Example 100153, (1S,3′R,6′R,7′R,11′S,12′R)-6-chloro-7′-hydroxy-11′,12′-dimethyl-7′-(2-oxo-2-(2-oxo-1,3-oxazolidin-3-yl)ethyl)-3,4-dihydro-2H,15′H-spiro[naphthalene-1,22′-[20]oxa[13]thia[1,14]diazatetracyclo [14.7.2.0~3,6~.0~19,24~]pentacosa[16,18,24]trien]-15′-one 13′,13′-dioxide], the figures for the IC50 in assay [1] (setting [4]) and in assay [2] (setting [5]) were 4660 nM and 0.738 nM, respectively.
For `Cc1ccnc(C[C@@]2(O)/C=C/C[C@H](C)[C@@H](C)S(=O)(=O)NC(=O)c3ccc4c(c3)N(C[C@@H]3CC[C@H]32)C[C@@]2(CCCc3cc(Cl)ccc32)CO4)c1` [Example 100532, (1S,3′R,6′R,7′R,8′E,11′S,12′R)-6-chloro-7′-hydroxy-11′,12′-dimethyl-7′-((4-methyl-2-pyridinyl)methyl)-3,4-dihydro-2H,15′H-spiro[naphthalene-1,22′-[20]oxa[13]thia[1,14]diazatetracyclo [14.7.2.0~3,6~.0~19,24~]pentacosa[8,16,18,24]tetraen]-15′-one 13′,13′-dioxide], the IC50 was found to be 8640 nM in assay [1] (setting [3]) and 0.053 nM in assay [2] (setting [5]).
The corresponding values for `C[C@@H]1[C@@H](C)CCC[C@](O)(CO)[C@@H]2CC[C@H]2CN2C[C@@]3(CCCc4cc(Cl)ccc43)COc3ccc(cc32)C(=O)NS1(=O)=O` (single isomer, unassigned) [Example 100052] are 424 nM and 0.191 nM.
